# Laboratory results published in ChEMBL document CHEMBL1201862, “PubChem BioAssay data set” (2004).
# The source made the active and inactive calls.
# Experiments:
# [1] = biological target: T1, Neuropeptides B/W receptor type 1 (Homo sapiens, UniProt P48145); assay: GPR7 antagonist potency, late-stage follow-up, cell-based, fluorescence, dose response, set 6 (AID 588583); type: functional
# T1 sequence (P48145 whole entry): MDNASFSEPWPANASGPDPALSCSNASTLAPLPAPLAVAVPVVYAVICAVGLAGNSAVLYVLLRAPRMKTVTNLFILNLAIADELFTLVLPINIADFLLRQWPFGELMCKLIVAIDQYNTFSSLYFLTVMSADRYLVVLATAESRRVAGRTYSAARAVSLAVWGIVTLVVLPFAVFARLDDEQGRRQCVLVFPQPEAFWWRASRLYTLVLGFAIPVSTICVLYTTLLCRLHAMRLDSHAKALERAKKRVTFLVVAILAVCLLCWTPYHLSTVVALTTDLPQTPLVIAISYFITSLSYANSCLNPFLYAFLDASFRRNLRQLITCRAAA
# [2] = biological target: Melanin-concentrating hormone receptor 1 (Homo sapiens, UniProt Q99705); assay: Late-stage fluorescence-based counterscreen for antagonists of the G-protein coupled receptor 7 (GPR7): cell-based dose response assay to identify antagonists of the melanin-concentrating hormone receptor 1 (MCHR1) Set 6.; type: functional
# [3] = cells
# [4] = HEp-2 cell cytotoxicity, dose response, cytotoxicity control for RSV inhibitor project, HTS (AID 2410); type: functional; conditions: human respiratory syncytial virus
# [5] = biological target: Beta-galactosidase (Escherichia coli, UniProt Q8VNN2); assay: Dose response counterscreen for EBI2 assay utilizing the enzyme, b-galactosidase.; type: functional
# [6] = biological target: Beta Lactamase (Pseudomonas aeruginosa, UniProt Q932Y6); assay: beta-lactamase reporter inhibitor potency, dose response, artefact control for NOD2-RIPK2 interaction inhibitor project, BLA reporter cells, FRET fluorescence (AID 651552); type: functional, cell-based
# [7] = Fluorescence-based cell-based high throughput dose response assay for inhibitors of the interaction of nucleotide-binding oligomerization domain containing 2 (NOD2) and the receptor-interacting serine-threonine kinase 2 (RIPK2).; type: functional; conditions: Homo sapiens
# [8] = biological target: T2, High affinity choline transporter 1 (Homo sapiens, UniProt Q9GZV3); assay: CHT inhibitors, dose response, cell-based, 5-point CRC, membrane potential dye (AID 504840); type: functional
# T2 sequence (Q9GZV3 whole entry): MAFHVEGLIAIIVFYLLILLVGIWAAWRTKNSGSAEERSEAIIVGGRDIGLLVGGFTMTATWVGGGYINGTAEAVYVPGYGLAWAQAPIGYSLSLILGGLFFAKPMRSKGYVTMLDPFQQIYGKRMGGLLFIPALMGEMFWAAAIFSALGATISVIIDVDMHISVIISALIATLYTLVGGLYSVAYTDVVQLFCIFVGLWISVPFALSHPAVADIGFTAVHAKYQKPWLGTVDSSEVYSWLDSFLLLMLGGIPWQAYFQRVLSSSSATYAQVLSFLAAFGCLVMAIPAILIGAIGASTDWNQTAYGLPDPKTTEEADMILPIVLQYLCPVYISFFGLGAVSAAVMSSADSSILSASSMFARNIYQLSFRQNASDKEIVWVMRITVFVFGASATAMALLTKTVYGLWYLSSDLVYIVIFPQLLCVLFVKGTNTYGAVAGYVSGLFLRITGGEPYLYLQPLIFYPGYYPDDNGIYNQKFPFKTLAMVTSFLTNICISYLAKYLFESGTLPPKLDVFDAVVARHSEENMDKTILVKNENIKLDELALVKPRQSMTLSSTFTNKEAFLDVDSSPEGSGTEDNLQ
# [9] = biological target: T2, High affinity choline transporter 1; assay: CHT inhibitors, dose response, cell-based, 10-point CRC, membrane potential dye (AID 588401); type: functional;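 also: membrane potential dye fluorescence of choline-evoked depolarization via CHT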
# [10] = biological target: T3, Small ubiquitin-related modifier 2 (Homo sapiens, UniProt P61956); assay: inhibitors of SUMO2 protein-protein interaction, dose response, selectivity assay for SUMO1 interaction inhibitor project, biochemical, FRET, human SUMO2, uHTS hits (AID 624384); type: functional; conditions: read-out: IC50_Mean
# [11] = biological target: T4, Small ubiquitin-related modifier 1 (Homo sapiens, UniProt P63165); assay: inhibitors of SUMO1 peptide binding, dose response, biochemical, fluorescence polarization, uHTS hits (AID 624382); type: functional; conditions: read-out: IC50_Mean
# [12] = biological target: T4, Small ubiquitin-related modifier 1; assay: inhibitors of SUMO1 partner interactions, dose response, biochemical, FRET (AID 624383); type: functional; conditions: read-out: IC50_Mean
# [13] = biological target: T3, Small ubiquitin-related modifier 2; assay: SUMO2–SIM peptide binding inhibitors, dose response, selectivity assay for SUMO1 interaction inhibitor project, biochemical, fluorescence polarization, uHTS hits (AID 624385); type: functional; conditions: read-out: IC50_Mean
# [14] = biological target: T5, Beta-lactamase (Pseudomonas aeruginosa, UniProt Q79MP6); assay: IMP-1 metallo-beta-lactamase inhibitors, dose response, selectivity assay for VIM-2 inhibitor project, biochemical, epi-absorbance (AID 1920)
# [15] = biological target: Beta-lactamase (Salmonella choleraesuis (strain SC-B67), UniProt Q5J463); assay: Epi-absorbance-based counterscreen for selective VIM-2 inhibitors: dose response biochemical high throughput screening assay to identify inhibitors of TEM-1 serine-beta-lactamase.
# [16] = biological target: T5, Beta-lactamase; assay: […] counterscreen for selective VIM-2 inhibitors: dose response biochemical high throughput screening assay to identify inhibitors of IMP-1 metallo-beta-lactamase.
# T3 sequence (P61956 whole entry): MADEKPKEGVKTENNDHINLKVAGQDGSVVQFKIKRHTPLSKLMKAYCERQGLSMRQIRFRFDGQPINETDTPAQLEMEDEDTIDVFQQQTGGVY
# T5 sequence (Q79MP6 whole entry): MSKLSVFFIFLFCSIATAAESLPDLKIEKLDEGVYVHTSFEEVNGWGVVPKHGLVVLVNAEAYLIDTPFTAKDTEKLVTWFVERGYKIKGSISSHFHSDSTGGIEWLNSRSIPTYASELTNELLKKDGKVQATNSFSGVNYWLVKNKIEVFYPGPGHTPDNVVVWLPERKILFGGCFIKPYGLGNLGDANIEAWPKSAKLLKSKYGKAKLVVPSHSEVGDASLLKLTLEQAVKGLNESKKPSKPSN
# Chain of Melanin-concentrating hormone receptor 1 (Q99705 whole entry): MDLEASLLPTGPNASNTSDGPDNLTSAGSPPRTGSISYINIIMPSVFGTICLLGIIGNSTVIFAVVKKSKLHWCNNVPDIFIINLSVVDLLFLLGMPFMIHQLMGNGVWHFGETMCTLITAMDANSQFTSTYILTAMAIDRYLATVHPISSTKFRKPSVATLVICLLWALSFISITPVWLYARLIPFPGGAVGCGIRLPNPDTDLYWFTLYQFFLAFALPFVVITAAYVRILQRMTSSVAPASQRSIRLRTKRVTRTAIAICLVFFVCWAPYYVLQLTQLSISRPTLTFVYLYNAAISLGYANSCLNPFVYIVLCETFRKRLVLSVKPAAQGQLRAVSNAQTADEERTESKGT
# T4 sequence (P63165 whole entry): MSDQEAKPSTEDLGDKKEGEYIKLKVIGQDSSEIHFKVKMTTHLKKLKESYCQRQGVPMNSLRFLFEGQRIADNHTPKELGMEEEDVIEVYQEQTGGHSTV
# Chain of Beta Lactamase (Q932Y6 whole entry, the tested form may be a part): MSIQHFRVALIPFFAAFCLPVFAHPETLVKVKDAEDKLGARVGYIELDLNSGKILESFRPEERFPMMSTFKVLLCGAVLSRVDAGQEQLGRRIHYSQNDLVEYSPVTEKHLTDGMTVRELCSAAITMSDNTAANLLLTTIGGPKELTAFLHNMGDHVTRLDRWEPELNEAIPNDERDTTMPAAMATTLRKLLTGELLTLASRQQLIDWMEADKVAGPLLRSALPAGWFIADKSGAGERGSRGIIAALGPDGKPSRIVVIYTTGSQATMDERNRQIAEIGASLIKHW
# Chain of Beta-galactosidase (Q8VNN2 whole entry): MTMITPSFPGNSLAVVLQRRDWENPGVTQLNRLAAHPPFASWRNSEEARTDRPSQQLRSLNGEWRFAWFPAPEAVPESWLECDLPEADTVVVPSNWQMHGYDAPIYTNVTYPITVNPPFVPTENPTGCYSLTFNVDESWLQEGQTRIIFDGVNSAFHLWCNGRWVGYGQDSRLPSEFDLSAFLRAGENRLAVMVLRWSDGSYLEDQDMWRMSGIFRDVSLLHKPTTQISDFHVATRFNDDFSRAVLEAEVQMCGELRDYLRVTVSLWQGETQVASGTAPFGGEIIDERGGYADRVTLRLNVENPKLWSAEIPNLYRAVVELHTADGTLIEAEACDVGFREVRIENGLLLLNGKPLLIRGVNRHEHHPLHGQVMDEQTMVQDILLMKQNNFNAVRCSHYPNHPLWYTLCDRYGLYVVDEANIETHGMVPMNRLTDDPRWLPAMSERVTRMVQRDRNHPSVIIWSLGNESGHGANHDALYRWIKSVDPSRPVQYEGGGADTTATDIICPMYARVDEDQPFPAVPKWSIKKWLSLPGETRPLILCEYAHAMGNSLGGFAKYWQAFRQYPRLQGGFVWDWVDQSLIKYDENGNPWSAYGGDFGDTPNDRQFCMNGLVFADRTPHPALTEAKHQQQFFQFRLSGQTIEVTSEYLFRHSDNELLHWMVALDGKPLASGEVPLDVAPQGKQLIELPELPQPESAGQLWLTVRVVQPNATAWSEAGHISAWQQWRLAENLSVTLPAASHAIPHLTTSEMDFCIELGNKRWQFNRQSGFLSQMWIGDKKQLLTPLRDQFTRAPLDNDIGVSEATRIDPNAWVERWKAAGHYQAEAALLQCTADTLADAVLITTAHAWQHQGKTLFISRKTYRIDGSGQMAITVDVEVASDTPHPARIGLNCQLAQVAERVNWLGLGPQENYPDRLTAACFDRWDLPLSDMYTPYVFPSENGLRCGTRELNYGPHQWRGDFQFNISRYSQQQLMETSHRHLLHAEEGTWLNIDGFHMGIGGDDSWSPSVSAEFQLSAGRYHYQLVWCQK
# Chain of Beta-lactamase (Salmonella choleraesuis (strain SC-B67), UniProt Q5J463) (Q5J463 whole entry): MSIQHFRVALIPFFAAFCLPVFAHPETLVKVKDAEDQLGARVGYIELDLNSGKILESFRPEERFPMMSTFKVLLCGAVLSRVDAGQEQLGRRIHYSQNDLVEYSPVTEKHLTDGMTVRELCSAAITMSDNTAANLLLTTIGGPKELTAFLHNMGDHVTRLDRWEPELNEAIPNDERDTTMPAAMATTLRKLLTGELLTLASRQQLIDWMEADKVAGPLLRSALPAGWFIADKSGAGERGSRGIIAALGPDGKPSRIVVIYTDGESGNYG
smiles,measurement,setting,value
N#CC(c1c(F)c(F)c(F)c(F)c1F)c1c(Cl)cnn(Cc2cccc3ccccc23)c1=O (stereo not drawn),IC50,[1],1.56 µM (active)
same,IC50,[2],1.56 µM (active)
COc1ccc(-c2cc3nc(-c4ccccc4)cc(N4CCC(O)CC4)n3n2)cc1,IC50,[3],34.9 µM (active)
same,CC50,[4],17 µM (active)
same,IC50,[5],> 80 µM (inactive)
CC(=O)O/N=C1C=C/C(=C(\C#N)c2ccccc2)C=C/1,IC50,[6],49.8 µM (inactive)
same,IC50,[7],5.83 µM (active)
O=C(NCCCn1ccnc1)c1cnn2c1NC(c1ccccc1)CC2C(F)(F)F (stereo not drawn),IC50,[8],8.15 µM (active)
same,IC50,[9],4.47 µM (active)
COc1ccc(-c2csc(/C(C#N)=C\c3ccc(O)c([N+](=O)[O-])c3)n2)cc1OC,IC50,[10],> 66 µM (inactive)
same,IC50,[11],51.3 µM (inactive)
same,IC50,[12],52.1 µM (inactive)
same,IC50,[13],35.7 µM (inactive)
N#CC(c1ccccc1[N+](=O)[O-])c1c(Cl)cnn(Cc2cccc3ccccc23)c1=O (stereo not drawn),IC50,[1],1.26 µM (active)
same,IC50,[2],1.26 µM (active)
Cc1cccc(-n2c(C)nnc2S)c1C,IC50,[14],> 59.6 µM (inactive)
same,IC50,[15],> 59.6 µM (inactive)
same,IC50,[16],> 59.6 µM (inactive)
